Tested on: neuromuscular junction
Assay: Rabbit paw twitch analysis (neuromuscular blocking activity)
Type: in vivo, Male New Zealand white rabbits
Text: In a large series of similar relaxants, the rabbit dose is typically 125% of that in mice. The mechanism of action was also confirmed in this test by observing train-of-four and tetanus fade, post-tetanic potentiation of single twitches and administration of the anticholinesterase drug neostigmine which reverses the relaxation. Reversibility, rapid onset and short duration are important factors to the anesthesiologist.
The following is a brief description of the methodologies used in rabbits to describe neuromuscular blocking activity of the subject compounds. A more detailed description of these methods is presented in "Microcomputer Use in Measuring Onset, Duration, and Recovery from Non-Depolarizing Skeletal Muscle Relaxants in Rabbits", P.D. Thut et al., Drug development Research 5:182, 1985.
Male New Zealand white rabbits weighing between 2.5 and 3.4 kg were anesthetized with pentobarbital (30 mg/kg) and placed on their backs upon a 40°C water filled temperature regulation pad. Following tracheostomy, the lungs were mechanically ventilated at 28 breaths per minute with room air, using an open system delivering 200 ml/stroke. This ventilation maintained pCO₂ at 38 […] and pO₂ at 85 mmHg. Direct arterial blood pressure was measured from the right common carotid artery. The test compounds were administered through a cannula placed in the marginal ear vein. Each foreleg was taped to a cushioned plate held in a femur clamp attached to the spinal board rack. The left centeral digit of each paw was connected to a force displacement transducer for measurement of muscle tension. Nerve stimulation was provided by pairs of pin electrodes placed on both sides of the ulnar nerve at the elbow of both forearms. The right ulnar nerve was stimulated at 1 Hz, 1 pps for .5 msec duration. The left ulnar nerve was similarly stimulated, every 15 seconds, with addition of interspersed trains-of-four and tetanizing stimuli. The parameters reported in Table II are: potency (ED90), which is the dose required to depress twitch tension to 10% of its control value; onset (T85%), which is the time from injection until 85% of the maximal drug effect is achieved; duration, which is the time from injection until the train-of-four has recovered to 75%; blood pressure (BP), which is the percentage change of pre-drug blood pressure; and heart rate (HR), which is the percentage change from pre-drug heart rate.

Q: With `COc1ccc(CC2c3cc(OC)c(OC)cc3CC[N+]2(C)CCC(=O)OCCCCCOC(=O)CC[N+]2(C)CCc3cc(OC)c(OC)cc3C2Cc2ccc(OC)c(OC)c2)cc1OC` (stereo not shown) [atracurium] as the compound, how does the ED90 (Oryctolagus cuniculus, iv, potency: dose required to depress twitch tension to 10% of its control value, pentobarbital-anesthetized rabbits, marginal ear vein) read?
A: 0.05 mg/kg

Q: And the T85% (onset: time from injection until 85% of the maximal drug effect is achieved, equi-efficacious dose)?
A: 126.90 s

Q: What about the Duration (time from injection until the train-of-four has recovered to 75%, equi-efficacious dose) of the same compound?
A: 14.30 min

Q: With `CC(=O)O[C@H]1C[C@@H]2CC[C@@H]3[C@H](CC[C@@]4(C)[C@H]3C[C@H]([N+]3(C)CCCCC3)[C@@H]4OC(C)=O)[C@@]2(C)C[C@@H]1[N+]1(C)CCCCC1` [pancuronium] as the compound, how does the BP (rabbit, in vivo) read?
A: 2.70 % change

Q: What about the Duration (rabbit, in vivo) of the same compound?
A: 35.50 min

Q: What about the ED9O (rabbit, in vivo) of the same compound?
A: 0.02 mg/kg

Q: What about the HR (rabbit, in vivo) of the same compound?
A: 0.00 % change

Q: What about the T85% (rabbit, in vivo) of the same compound?
A: 147.50 s

Q: What does the source list for `CC(=O)O[C@H]1C[C@@H]2CC[C@@H]3[C@H](CC[C@@]4(C)[C@H]3C[C@H]([N+]3(C)CCCCC3)[C@@H]4OC(C)=O)[C@@]2(C)C[C@@H]1N1CCCCC1` [vecuronium]?
A: BP (rabbit, in vivo): 1.10 % change; Duration (rabbit, in vivo): 16.80 min; ED9O (rabbit, in vivo): 0.02 mg/kg; HR (rabbit, in vivo): - 9.90 % change; T85% (rabbit, in vivo): 97.30 s

Reference: patent EP0498941A2, “Peptide skeletal muscle relaxants” (BOC Health Care, Inc., priority 1991, dated 1992)
